What was measured:
[1] = tested on: johnsongrass; experiment: Test C postemergence; assay type: in vivo, Sorghum halepense
Excerpt: (§1) Seeds of plant species selected from blackgrass (Alopecurus myosuroides), ryegrass, Italian (Italian ryegrass, Lolium multiflorum), wheat (winter wheat, Triticum aestivum), galium (catchweed bedstraw, Galium aparine), corn (Zea mays), crabgrass, large (large crabgrass, Digitaria sanguinalis), foxtail, giant, (giant foxtail, Setaria faberii), johnsongrass (Sorghum halepense), lambsquarters (Chenopodium album), morningglory (Ipomoea coccinea), nutsedge, yellow (yellow nutsedge, Cyperus esculentus), pigweed (Amaranthus retroflexus), ragweed (common ragweed, Ambrosia elatior), soybean (Glycine max), barnyardgrass (Echinochloa crus-galli), oilseed rape (Brassica napus), waterhemp (common waterhemp, Amaranthus rudis), and velvetleaf (Abutilon theophrasti) were planted into a blend of loam soil and sand and treated preemergence with test chemicals formulated in a non-phytotoxic solvent mixture which included a surfactant. At the same time, plants selected from these crop and weed species and also chickweed (common chickweed, Stellaria media), oat, wild (wild oat, Avena fatua), and kochia (Kochia scoparia), were planted in pots containing Sunshine Redi-Earth® planting medium comprising spaghnum peat moss, vermiculite, starter nutrients and dolomitic limestone and treated with postemergence applications of test chemicals formulated in the same manner. Plants ranged in height from 2 to 18 cm (1- to 4-leaf stage) for postemergence treatments. […] A dash (-) response means no test result.

[2] = tested on: foxtail, giant; experiment: Test A preemergence; assay type: in vivo, Setaria faberii; settings: Setaria faberi, pre-emergence, 240 h, 0 to 100 scale (0 no effect, 100 complete control), read-out: Plant response rating, Foxtail, Giant; for pest or weed control at 125 g/ha: 125 g ai/ha; for pest or weed control at 500 g/ha: 500 g ai/ha, approx. 10 d
Method in brief: (§2)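 Pre- and postemergence spray tests in a loam soil–sand mixture: seeded soil received a directed spray, while established seedlings 2–10 cm high at the one- to two-leaf stage were treated over the top. Compounds were carried in non-phytotoxic solvent with surfactant.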

[3] = tested on: oat, wild; experiment: Test C postemergence; assay type: in vivo, Avena fatua
Excerpt: as §1

[4] = tested on: galium; experiment: Test C postemergence; assay type: in vivo, Galium aparine
Excerpt: as §1

[5] = tested on: pigweed; experiment: Test A preemergence; assay type: in vivo, Amaranthus retroflexus; settings: Amaranthus retroflexus, pre-emergence, 240 h, 0 to 100 scale (0 no effect, 100 complete control), read-out: Plant response rating, Pigweed; for pest or weed control at 125 g/ha: 125 g ai/ha; for pest or weed control at 500 g/ha: 500 g ai/ha, approx. 10 d
Method in brief: as §2

[6] = tested on: lambsquarters; experiment: Test C postemergence; assay type: in vivo, Chenopodium album
Excerpt: as §1

[7] = tested on: soybean; experiment: Test C postemergence; assay type: in vivo, Glycine max
Excerpt: as §1

[8] = tested on: chickweed; experiment: Test C postemergence; assay type: in vivo, Stellaria media
Excerpt: as §1

[9] = tested on: blackgrass; experiment: Test C postemergence; assay type: in vivo, Alopecurus myosuroides
Excerpt: as §1

[10] = tested on: rice; experiment: Test B flooded paddy test; assay type: in vivo, Oryza sativa; settings: Oryza sativa, 360 h, 125 g ai/ha, applied to paddy water at 2-leaf stage, visual rating after 13 to 15 d, scale 0 (no effect) to 100 (complete control), read-out: Plant response rating, Rice, Flood
Method in brief: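 Pots were flooded to 3 cm above the soil at treatment, and compounds were applied directly into the paddy water. That depth was held throughout. After 13 to 15 d in a greenhouse, plants were rated visually against untreated controls.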

[11] = tested on: pigweed; experiment: Test C postemergence; assay type: in vivo, Amaranthus retroflexus
Excerpt: as §1

[12] = tested on: wheat (winter wheat); experiment: Test C postemergence; assay type: in vivo, Triticum aestivum
Excerpt: as §1

COc1nc(-c2ccc(F)cc2)nn1Cc1ccnc(C(F)(F)F)c1 [Compound 9, 4-[[3-(4-fluorophenyl)-5-methoxy-1H-1,2,4-triazol-1-yl]methyl]-2-(trifluoromethyl)pyridine]
Plant response rating (scale of 0 to 100 where 0 is no effect and 100 is complete control) ([1]; 16 g ai/ha): 0
Plant response rating (scale of 0 to 100 where 0 is no effect and 100 is complete control) ([1]; 31 g ai/ha): 5
Plant response rating (scale of 0 to 100 where 0 is no effect and 100 is complete control) ([1]; 62 g ai/ha): 5
Plant response rating (scale of 0 to 100 where 0 is no effect and 100 is complete control) ([1]; 125 g ai/ha): 10
pest or weed control at 125 g/ha [2]: 100%
pest or weed control at 500 g/ha [2]: 100%
Plant response rating (scale of 0 to 100 where 0 is no effect and 100 is complete control) ([3]; 16 g ai/ha): 5
Plant response rating (scale of 0 to 100 where 0 is no effect and 100 is complete control) ([3]; 31 g ai/ha): 5
Plant response rating (scale of 0 to 100 where 0 is no effect and 100 is complete control) ([3]; 62 g ai/ha): 5
Plant response rating (scale of 0 to 100 where 0 is no effect and 100 is complete control) ([3]; 125 g ai/ha): 10
Plant response rating (scale of 0 to 100 where 0 is no effect and 100 is complete control) ([4]; 16 g ai/ha): 50
Plant response rating (scale of 0 to 100 where 0 is no effect and 100 is complete control) ([4]; 31 g ai/ha): 70
Plant response rating (scale of 0 to 100 where 0 is no effect and 100 is complete control) ([4]; 62 g ai/ha): 80
Plant response rating (scale of 0 to 100 where 0 is no effect and 100 is complete control) ([4]; 125 g ai/ha): 65
pest or weed control at 125 g/ha [5]: 100%
pest or weed control at 500 g/ha [5]: 100%
Plant response rating (scale of 0 to 100 where 0 is no effect and 100 is complete control) ([6]; 16 g ai/ha): 65
Plant response rating (scale of 0 to 100 where 0 is no effect and 100 is complete control) ([6]; 31 g ai/ha): 55
Plant response rating (scale of 0 to 100 where 0 is no effect and 100 is complete control) ([6]; 62 g ai/ha): 70
Plant response rating (scale of 0 to 100 where 0 is no effect and 100 is complete control) ([6]; 125 g ai/ha): 85
Plant response rating (scale of 0 to 100 where 0 is no effect and 100 is complete control) ([7]; 16 g ai/ha): 15
Plant response rating (scale of 0 to 100 where 0 is no effect and 100 is complete control) ([7]; 31 g ai/ha): 25
Plant response rating (scale of 0 to 100 where 0 is no effect and 100 is complete control) ([7]; 62 g ai/ha): 30
Plant response rating (scale of 0 to 100 where 0 is no effect and 100 is complete control) ([7]; 125 g ai/ha): 30
Plant response rating (scale of 0 to 100 where 0 is no effect and 100 is complete control) ([8]; 16 g ai/ha): 70
Plant response rating (scale of 0 to 100 where 0 is no effect and 100 is complete control) ([8]; 31 g ai/ha): 75
Plant response rating (scale of 0 to 100 where 0 is no effect and 100 is complete control) ([8]; 62 g ai/ha): 75
Plant response rating (scale of 0 to 100 where 0 is no effect and 100 is complete control) ([8]; 125 g ai/ha): 80
Plant response rating (scale of 0 to 100 where 0 is no effect and 100 is complete control) ([9]; 16 g ai/ha): 5
Plant response rating (scale of 0 to 100 where 0 is no effect and 100 is complete control) ([9]; 31 g ai/ha): 5
Plant response rating (scale of 0 to 100 where 0 is no effect and 100 is complete control) ([9]; 62 g ai/ha): 5
Plant response rating (scale of 0 to 100 where 0 is no effect and 100 is complete control) ([9]; 125 g ai/ha): 15
plant injury at 125 g/ha [10]: 0%
Plant response rating (scale of 0 to 100 where 0 is no effect and 100 is complete control) ([11]; 16 g ai/ha): 75
Plant response rating (scale of 0 to 100 where 0 is no effect and 100 is complete control) ([11]; 31 g ai/ha): 85
Plant response rating (scale of 0 to 100 where 0 is no effect and 100 is complete control) ([11]; 62 g ai/ha): 90
Plant response rating (scale of 0 to 100 where 0 is no effect and 100 is complete control) ([11]; 125 g ai/ha): 85
Plant response rating (scale of 0 to 100 where 0 is no effect and 100 is complete control) ([12]; 16 g ai/ha): 0
Plant response rating (scale of 0 to 100 where 0 is no effect and 100 is complete control) ([12]; 31 g ai/ha): 0
Plant response rating (scale of 0 to 100 where 0 is no effect and 100 is complete control) ([12]; 62 g ai/ha): 0
Plant response rating (scale of 0 to 100 where 0 is no effect and 100 is complete control) ([12]; 125 g ai/ha): 5

Cn1nc(-c2ccc(F)cc2)nc1C(O)c1ccnc(C(F)(F)F)c1 (stereo not drawn) [Compound 14, α-[3-(4-fluorophenyl)-1-methyl-1H-1,2,4-triazol-5-yl]-2-(trifluoromethyl)-4-pyridinemethanol]
pest or weed control at 125 g/ha [2]: 30%
pest or weed control at 500 g/ha [2]: 90%
pest or weed control at 125 g/ha [5]: 90%
pest or weed control at 500 g/ha [5]: 100%
plant injury at 125 g/ha [10]: 0%

Reference: US10681909B2, “Herbicidal triazoles” (FMC Corporation, priority 2014, dated 2020)
